{"source": "the supplement of paper PMC10307832", "test_in_all_cases": "relative viability (nuclei count vs DMSO), 5 days (fraction); higher = more cells survive", "key": {"NCI-H1915": {"tested_on": "NCI-H1915", "outline": "(§1)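 After 5 days of treatment, lung cancer cells in 1536-well plates were fixed and stained in a single step (final 0.05% Triton X-100, 1% formaldehyde, 1 ug/ml Hoechst) and their nuclei counted on 4× images. Treatment had been applied by pin tool the day after seeding as one drug alone or as a fixed anchor-drug dose with five library-drug doses (not always all listed) in √10 steps. Relative viability is the nuclei count of treated wells divided by that of vehicle wells, and values are medians of duplicate plates.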"}, "NCI-H2087": {"tested_on": "NCI-H2087", "outline": "as §1"}, "NCI-H647": {"tested_on": "NCI-H647", "outline": "as §1"}, "NCI-H650": {"tested_on": "NCI-H650", "outline": "as §1"}, "NCI-H2126": {"tested_on": "NCI-H2126", "outline": "as §1"}, "NCI-H522": {"tested_on": "NCI-H522", "outline": "as §1"}, "COR-L 105": {"tested_on": "COR-L 105", "outline": "as §1"}, "PC-14": {"tested_on": "PC-14", "outline": "as §1"}, "NCI-H2405": {"tested_on": "NCI-H2405", "outline": "as §1"}, "NCI-H322M": {"tested_on": "NCI-H322M", "outline": "as §1"}, "H3255": {"tested_on": "H3255", "outline": "as §1"}, "LC-2-ad": {"tested_on": "LC-2-ad", "outline": "as §1"}, "NCI-H1666": {"tested_on": "NCI-H1666", "outline": "as §1"}, "RERF-LC-KJ": {"tested_on": "RERF-LC-KJ", "outline": "as §1"}, "LCLC-97TM1": {"tested_on": "LCLC-97TM1", "outline": "as §1"}, "ChaGo-K-1": {"tested_on": "ChaGo-K-1", "outline": "as §1"}, "201T": {"tested_on": "201T", "outline": "as §1"}, "EPLC-272H": {"tested_on": "EPLC-272H", "outline": "as §1"}, "NCI-H23": {"tested_on": "NCI-H23", "outline": "as §1"}, "NCI-H520": {"tested_on": "NCI-H520", "outline": "as §1"}, "NCI-H2347": {"tested_on": "NCI-H2347", "outline": "as §1"}, "NCI-H661": {"tested_on": "NCI-H661", "outline": "as §1"}, "HCC-827": {"tested_on": "HCC-827", "outline": "as §1"}}}
{"smiles": "C[C@@H]1CN(CC(=O)Nc2ccc3c(c2)Cc2cccc(-c4cc(=O)cc(N5CCOCC5)o4)c2S3)C[C@H](C)O1", "note": "+ CCNC(=O)c1noc(-c2cc(C(C)C)c(O)cc2O)c1-c1ccc(CN2CCOCC2)cc1 [Luminespib] (partner 0.01 µM)", "values": [{"measurement": "relative viability", "setting": "NCI-H1915; first compound 0.04 µM", "result": 0.761}, {"measurement": "relative viability", "setting": "NCI-H1915; first compound 0.1265 µM", "result": 0.686}, {"measurement": "relative viability", "setting": "NCI-H1915; first compound 0.4 µM", "result": 0.756}, {"measurement": "relative viability", "setting": "NCI-H1915; first compound 4 µM", "result": 0.68}, {"measurement": "relative viability", "setting": "NCI-H2087; first compound 0.04 µM", "result": 0.217}, {"measurement": "relative viability", "setting": "NCI-H2087; first compound 0.1265 µM", "result": 0.188}, {"measurement": "relative viability", "setting": "NCI-H2087; first compound 0.4 µM", "result": 0.207}, {"measurement": "relative viability", "setting": "NCI-H2087; first compound 4 µM", "result": 0.168}, {"measurement": "relative viability", "setting": "NCI-H647; first compound 0.04 µM", "result": 0.121}, {"measurement": "relative viability", "setting": "NCI-H647; first compound 0.1265 µM", "result": 0.153}, {"measurement": "relative viability", "setting": "NCI-H647; first compound 0.4 µM", "result": 0.152}, {"measurement": "relative viability", "setting": "NCI-H647; first compound 4 µM", "result": 0.163}, {"measurement": "relative viability", "setting": "NCI-H650; first compound 0.04 µM", "result": 0.836}, {"measurement": "relative viability", "setting": "NCI-H650; first compound 0.1265 µM", "result": 0.827}, {"measurement": "relative viability", "setting": "NCI-H650; first compound 0.4 µM", "result": 0.831}, {"measurement": "relative viability", "setting": "NCI-H650; first compound 4 µM", "result": 0.738}, {"measurement": "relative viability", "setting": "NCI-H2126; first compound 0.04 µM", "result": 1.04}, {"measurement": "relative viability", "setting": "NCI-H2126; first compound 0.1265 µM", "result": 0.881}, {"measurement": "relative viability", "setting": "NCI-H2126; first compound 0.4 µM", "result": 0.863}, {"measurement": "relative viability", "setting": "NCI-H2126; first compound 4 µM", "result": 0.744}, {"measurement": "relative viability", "setting": "NCI-H522; first compound 0.1265 µM", "result": 1.17}, {"measurement": "relative viability", "setting": "NCI-H522; first compound 0.4 µM", "result": 1.06}, {"measurement": "relative viability", "setting": "NCI-H522; first compound 4 µM", "result": 0.896}, {"measurement": "relative viability", "setting": "COR-L 105; first compound 0.04 µM", "result": 0.882}, {"measurement": "relative viability", "setting": "COR-L 105; first compound 0.1265 µM", "result": 0.719}, {"measurement": "relative viability", "setting": "COR-L 105; first compound 0.4 µM", "result": 0.887}, {"measurement": "relative viability", "setting": "COR-L 105; first compound 4 µM", "result": 0.783}, {"measurement": "relative viability", "setting": "PC-14; first compound 0.04 µM", "result": 0.142}, {"measurement": "relative viability", "setting": "PC-14; first compound 0.1265 µM", "result": 0.122}, {"measurement": "relative viability", "setting": "PC-14; first compound 0.4 µM", "result": 0.15}, {"measurement": "relative viability", "setting": "PC-14; first compound 4 µM", "result": 0.144}, {"measurement": "relative viability", "setting": "NCI-H2405; first compound 0.04 µM", "result": 0.648}, {"measurement": "relative viability", "setting": "NCI-H2405; first compound 0.1265 µM", "result": 0.744}, {"measurement": "relative viability", "setting": "NCI-H2405; first compound 0.4 µM", "result": 0.726}, {"measurement": "relative viability", "setting": "NCI-H2405; first compound 4 µM", "result": 0.612}, {"measurement": "relative viability", "setting": "NCI-H322M; first compound 0.04 µM", "result": 0.767}, {"measurement": "relative viability", "setting": "NCI-H322M; first compound 0.1265 µM", "result": 0.765}, {"measurement": "relative viability", "setting": "NCI-H322M; first compound 0.4 µM", "result": 0.839}, {"measurement": "relative viability", "setting": "NCI-H322M; first compound 4 µM", "result": 0.841}, {"measurement": "relative viability", "setting": "H3255; first compound 0.04 µM", "result": 0.952}, {"measurement": "relative viability", "setting": "H3255; first compound 0.1265 µM", "result": 0.767}, {"measurement": "relative viability", "setting": "H3255; first compound 0.4 µM", "result": 0.912}, {"measurement": "relative viability", "setting": "H3255; first compound 4 µM", "result": 0.881}, {"measurement": "relative viability", "setting": "LC-2-ad; first compound 0.04 µM", "result": 0.986}, {"measurement": "relative viability", "setting": "LC-2-ad; first compound 0.1265 µM", "result": 0.912}, {"measurement": "relative viability", "setting": "LC-2-ad; first compound 0.4 µM", "result": 0.979}, {"measurement": "relative viability", "setting": "LC-2-ad; first compound 4 µM", "result": 0.953}, {"measurement": "relative viability", "setting": "NCI-H1666; first compound 0.04 µM", "result": 1}, {"measurement": "relative viability", "setting": "NCI-H1666; first compound 0.1265 µM", "result": 1.09}, {"measurement": "relative viability", "setting": "NCI-H1666; first compound 0.4 µM", "result": 1.12}, {"measurement": "relative viability", "setting": "NCI-H1666; first compound 4 µM", "result": 0.905}, {"measurement": "relative viability", "setting": "RERF-LC-KJ; first compound 0.04 µM", "result": 1.18}, {"measurement": "relative viability", "setting": "RERF-LC-KJ; first compound 0.1265 µM", "result": 1.18}, {"measurement": "relative viability", "setting": "RERF-LC-KJ; first compound 0.4 µM", "result": 1.19}, {"measurement": "relative viability", "setting": "RERF-LC-KJ; first compound 4 µM", "result": 0.709}, {"measurement": "relative viability", "setting": "LCLC-97TM1; first compound 0.04 µM", "result": 0.657}, {"measurement": "relative viability", "setting": "LCLC-97TM1; first compound 0.1265 µM", "result": 0.828}, {"measurement": "relative viability", "setting": "LCLC-97TM1; first compound 0.4 µM", "result": 0.749}, {"measurement": "relative viability", "setting": "LCLC-97TM1; first compound 4 µM", "result": 0.813}, {"measurement": "relative viability", "setting": "ChaGo-K-1; first compound 0.04 µM", "result": 0.598}, {"measurement": "relative viability", "setting": "ChaGo-K-1; first compound 0.1265 µM", "result": 0.596}, {"measurement": "relative viability", "setting": "ChaGo-K-1; first compound 0.4 µM", "result": 0.512}, {"measurement": "relative viability", "setting": "ChaGo-K-1; first compound 4 µM", "result": 0.394}, {"measurement": "relative viability", "setting": "201T; first compound 0.04 µM", "result": 1.06}, {"measurement": "relative viability", "setting": "201T; first compound 0.1265 µM", "result": 1.05}, {"measurement": "relative viability", "setting": "201T; first compound 0.4 µM", "result": 1.04}, {"measurement": "relative viability", "setting": "201T; first compound 4 µM", "result": 1.01}, {"measurement": "relative viability", "setting": "EPLC-272H; first compound 0.04 µM", "result": 0.519}, {"measurement": "relative viability", "setting": "EPLC-272H; first compound 0.1265 µM", "result": 0.381}, {"measurement": "relative viability", "setting": "EPLC-272H; first compound 0.4 µM", "result": 0.26}, {"measurement": "relative viability", "setting": "EPLC-272H; first compound 4 µM", "result": 0.254}, {"measurement": "relative viability", "setting": "NCI-H23; first compound 0.04 µM", "result": 0.205}, {"measurement": "relative viability", "setting": "NCI-H23; first compound 0.1265 µM", "result": 0.213}, {"measurement": "relative viability", "setting": "NCI-H23; first compound 0.4 µM", "result": 0.227}, {"measurement": "relative viability", "setting": "NCI-H23; first compound 4 µM", "result": 0.178}, {"measurement": "relative viability", "setting": "NCI-H520; first compound 0.04 µM", "result": 0.249}, {"measurement": "relative viability", "setting": "NCI-H520; first compound 0.1265 µM", "result": 0.256}, {"measurement": "relative viability", "setting": "NCI-H520; first compound 0.4 µM", "result": 0.224}, {"measurement": "relative viability", "setting": "NCI-H520; first compound 4 µM", "result": 0.221}, {"measurement": "relative viability", "setting": "NCI-H2347; first compound 0.04 µM", "result": 0.926}, {"measurement": "relative viability", "setting": "NCI-H2347; first compound 0.1265 µM", "result": 0.475}, {"measurement": "relative viability", "setting": "NCI-H2347; first compound 0.4 µM", "result": 0.438}, {"measurement": "relative viability", "setting": "NCI-H2347; first compound 4 µM", "result": 0.534}, {"measurement": "relative viability", "setting": "NCI-H661; first compound 0.04 µM", "result": 0.964}, {"measurement": "relative viability", "setting": "NCI-H661; first compound 0.1265 µM", "result": 0.938}, {"measurement": "relative viability", "setting": "NCI-H661; first compound 0.4 µM", "result": 0.97}, {"measurement": "relative viability", "setting": "NCI-H661; first compound 4 µM", "result": 0.813}, {"measurement": "relative viability", "setting": "HCC-827; first compound 0.04 µM", "result": 0.547}, {"measurement": "relative viability", "setting": "HCC-827; first compound 0.1265 µM", "result": 0.469}, {"measurement": "relative viability", "setting": "HCC-827; first compound 0.4 µM", "result": 0.915}, {"measurement": "relative viability", "setting": "HCC-827; first compound 4 µM", "result": 0.681}]}
